Test results from patent publication US20220184037A1, “PHARMACEUTICAL AGENTS TARGETING CANCER STEM CELLS” (THE JOHNS HOPKINS UNIVERSITY, priority 2020, published 2022).

Legend:
[1] = system: promoters of miR-126, miR-296 and miR-200c; test: Bisulfite sequencing of miRNA promoter methylation; format: cell-based, human; conditions: spheroid cells
Experimental: Cell pellets were digested with 1% sodium dodecyl sulfate and 50 μg/mL proteinase K (Roche, Nutley, USA) at 48° C. overnight. Isolation of genomic DNA from cell lines was performed with the phenol-chloroform extraction protocol followed by ethanol precipitation. Bisulfite treatment was conducted using an EpiTect Bisulfite K ft (QIAGEN, Valencia, USA), and was subsequently amplified via PCR using primers as shown in the following table. PCR products were purified using the QIAquick Gel Extraction kit (Qiagen), and sequenced by Genewiz DNA sequencing service (Genewiz, South Plainfield, USA). The data were analyzed using the Sequence Scanner v1.0 software (Life technologies). A methylation frequency of ≥50% of total CpG sites within the amplified region was considered “methylation-positive”.

[2] = Body weight of treated mice; format: in vivo; conditions: mice treated with inhibitors compared with control
Experimental: For therapeutic efficacy, mice were randomly assigned into experimental groups (five mice per group) when tumors reached a volume of […]. For celecoxib and/or VP treatment, celecoxib (5 mg/kg) was administered via intraperitoneal (i.p.) injection once a day (17), and VP (50 mg/kg) was administered via i.p. every other day (18). EP4 antagonist ONO-AE3-208 (10 mg/kg) was administered via i.p. once a day (19). Control was applied with same volume (10 μL per injection) of 10% dimethyl sulphoxide in 1% TWEEN 80 (Sigma-Aldrich). For GEM and CDDP (GC) treatment (i.p.), CDDP (6 mg/kg) was only applied after the first GEM (60 mg/kg) treatment on day 2, followed by three consecutive treatments of GEM on day 5, 8 and 11 (17). The next cycle was started on day 18, and the treatment was continued until tumor reached 2 cm in diameter. For erlotinib treatment, the mice were treated once a day, 6 days per week, by oral gavage with erlotinib (100 mg/kg) or control (PBS containing 0.5% methyl cellulose (Sigma-Aldrich) and 0.1% TWEEN 80) (20). Tumor size was measured at least every three days. Therapeutic efficacy was assessed using percentage change after treatment related to tumor size before treatment. […]

[3] = system: arsenic exposed (As)-HUC1 cells; test: MTT assay, sensitivity to erlotinib (IC50); format: cell-based, human; conditions: 72 hours (FIG. 1H)
Experimental: (§1) Embryonic kidney cell line 293, SV-40 immortalized normal human urothelial cell line (HUC1), and bladder cancer cell lines 5637, FIT-1376, J82, SCaBER, RT-4, T24, and UM-UC3 were obtained from American. Type Culture Collection (ATCC; Manassas, Va., USA). Mediums were purchased from Mediatech (Manassas, USA) and supplemented with 10% FBS (Hyclone, Logan, USA) under a 5% CO2 atmosphere at 95% relative humidity. HUC-1, T24, and 5637 cells were grown in F-12K, McCoy's 5A, and RPMI 1640 medium, respectively, and all other cells were grown Dulbecco's modified Eagle medium (DMEM). BFTC 905 and BFTC 909 cell lines were established from arsenic-exposed urothelial carcinoma subjects (9) and obtained from the German Collection of Microorganisms and Cell Cultures (Braunschweig, Germany). Re-authentification of cells was performed using PowerPlex 16 HS for short tandem repeats analysis at Genetic resource core facility, the Johns Hopkins University School of Medicine, Institute of Genetic Medicine, and all cell lines have been confirmed as authentic. To prepare in vitro arsenic model, we chronically exposed HUC1 cells to 1 μM arsenic trioxide, as described previously (10) and arsenic-exposed (As) cells and passage-matched arsenic un-exposed control (UE) cells were stock for each months until 12 months. […]
(§2) The cell proliferative and viability activity were measured using the 3-(4,5-dimethyl thiazol-2-yl)-2,5-diphenyltetrazolium bromide (MTT) Proliferation Assay Kit (ATCC; Manassas, Va., USA) according to the manufacturer's protocol. […] Spectrophotometric readings (570 nm-650 nm) were obtained on a Spectra Max 250 96-well plate reader (Molecular devices, Sunnyvale, USA). […] Cell viability was expressed as the ratio of absorbance values of the treated cells related to the untreated control cells considered as 1.0. The half maximal (50%) inhibitory concentration (IC50) value of drug was calculated by treatment with the various concentration for 72 hours using MTT assay. […]

[4] = system: basal-type bladder cancer cell lines; test: MTT assay, sensitivity to erlotinib (IC50); format: cell-based, human; conditions: 72 hours
Experimental: as §1, §2

BFTC 905 cells = test: MTT assay, sensitivity to erlotinib (IC50); format: cell-based, human; conditions: BFTC 905 cells harboring an NRAS mutation, 72 hours
Experimental: as §1, §2

COX2 = test: Western blotting of COX2 expression in bladder cancer cells; format: cell-based, human
Experimental: (§3) Whole cell lysates were extracted using RIPA buffer (Thermo Scientific) supplemented with 10 μL/mL Halt™ Protease Inhibitor Cocktail Kit (Life Technologies) and 30 μL/mL Halt™ Phosphatase Inhibitor Cocktail Kit (Life Technologies). The protein concentrations were determined using a Pierce™ BCA Protein Assay Kit (Life Technologies), and the protein were separated on. NuPAGE 4-12% Bis-Tris Gel (Life Technologies) according to the manufacturer's protocol. COX2 (D5H5), NANOG (D73G4), OCT4 (D7O5Z), CD133 (A3G6K), Snail (C15D3), ZEBI (D80D3), Vimentin (D21H3), CDH2 (D4R1H), CDH1 (24E10), p-EGFR (D7A5), EGFR (D38B1), p-AKT (D9E), AKT (cat #, 9272), p-ERK (D13.14.4E), ERK (137F5), p-YAP1 (D9W2I), p-Src (cat #, 2101), Src (36D10), DNMT1 (D63A6), DNMT3A (D23G1), and DNMT3B (D7070) antibodies were obtained from Cell Signaling Technology (Danvers, Mass., USA), except for SOX2 (EPR3131; Abeam, Cambridge, USA), YAP1 (ab52771; Abeam), CD24 (cat #, AF5247-SP; R&D Systems, Minneapolis USA) and β-actin (A2228; Sigma-Aldrich). Secondary horseradish peroxidase (HRP)-conjugated antibodies were obtained from Cell Signaling Technology, and chemiluminescent detection of HRP-labeled antibodies was performed using Amersham ECL Prime Western Blotting Detection Reagent (GE Healthcare, Piscataway, USA). As loading control, β-actin was used.

[5] = system: AKT and extracellular signal-related kinase (ERK); test: Western blotting of AKT and ERK activation; format: cell-based, human; conditions: basal-type cells, erlotinib
Experimental: as §3

SMILES | promoter methylation of miR-126, miR-296, miR-200c [1] | body weight loss [2] | sensitivity to the EGFR inhibitor erlotinib [3] | sensitivity to the EGFR inhibitor erlotinib [4] | sensitivity to the EGFR inhibitor erlotinib (BFTC 905 cells) | COX2 expression (COX2; basal-type cells, 1 μM erlotinib) | levels of COX2 expression (COX2; non-basal-type cells, erlotinib) | activation of AKT and ERK [5]
Cc1ccc(-c2cc(C(F)(F)F)nn2-c2ccc(S(N)(=O)=O)cc2)cc1 [celecoxib, Celecoxib] | demethylated | did not observe body weight loss |  |  |  |  |  | 
C#Cc1cccc(Nc2ncnc3cc(OCCOC)c(OCCOC)cc23)c1 [erlotinib, Erlotinib] |  |  | sensitive | sensitive | resistance | increased COX2 expression | did not affect | suppressed activation
